Key:
[1] = molecular target: T1, human JAK1 (Homo sapiens, UniProt P23458); assay: Alphascreen tyrosine kinase enzyme assay, JAK1 kinase domain; format: biochemical; details: read-out: JAK1 IC50_nM
T1 construct: The kinase domain of human JAK1 was amplified; GST (N); made in house; host or cells: Sf9 insect cells (baculovirus)
Protocol: For screening purposes, compounds (in 100% DMSO) were warmed at 37 degrees for at least 20 minutes before use. A […] stock was initially made in assay buffer, where the final concentration of DMSO was 0.3%. The stocks were then diluted in 384 well Optiplates (Packard) where the final concentration of the compound was […].
The kinase domain of human JAK1 was amplified from U937mRNA using the polymerase chain reaction with the following primers: […]
The JAK1 PCR products were cloned into the pDest20 destination vector (Gibco). The JAK1 plasmid was then transformed into competent DH10Bac cells (Gibco), and the recombinant baculovirus was prepared via Sf9 insect cell transfection.
Baculovirus preparations from each of the constructs were infected into either one or five liters of Sf9 cells (Invitrogen) grown in SF-900 medium (Invitrogen) to a cell density of approximately 1-2×10^6 cells/ml. Cells were infected with virus at a MOI of 0.8-3.0. Cells were harvested and lysed. Tyrosine kinase domains were purified by affinity chromatography on a glutathione-agarose column (Scientifix Pty. Ltd. catalog #: GSH-200).
Kinase assays were performed in 384 well Optiplates (Packard) using an Alphascreen Protein Tyrosine Kinase PY100 detection kit The compounds were pre-incubated with affinity purified PTK domain in the presence of phosphotyrosine assay buffer (10 mM HEPES, pH 7.5, 100 mM MgCl2, 25 mM NaCl, […] and 0.1% Tween 20) for 20 minutes. The compounds were then incubated with substrate in the presence of ATP. The substrate used was susbtrate-1 with the sequence biotin-EGPWLEEEEEAYGWMDF-NH2 [SEQ. ID. NO. 13] (final concentration […]). For HCK 80 μm ATP was used and incubated for 60 minutes. Alphascreen phosphotyrosine acceptor beads followed by streptavidin donor beads at a concentration of 1/100 in stop buffer were added to each well under subdued light and incubated for 2-3 hours., The Alphascreen plates were read on a Packard Fusion Alpha instrument.

[2] = tested on: CTLL2; assay: Cellular screening, CTLL2 cells, Alamar Blue; format: cell-based; details: Mus musculus, CTLL-2, read-out: CTLL2 IC50_nM
Protocol: (§1) Cell suspensions were prepared by harvesting cells from culture (the cells used in this test were in late log phase growth with high viability.) Cells were diluted in the appropriate growth medium, as described above, to 1.1× final concentration (from 50,000 cell/mL to 200,000 cell/mL, depending on cell line).
(§2) Compounds to be tested were added (10 μL, 10× final concentration) to a flat bottomed 96-well plate. The cellular suspension (90 μL per well) was then added, and the plate incubated for 40 hr at 37° C., 5% CO2. Alamar Blue 10 μL per well was added and the plates returned to the incubator for a further 4-6 hours. The plates were then read at 544 nm.

[3] = molecular target: T2, Blk(m) (Mus musculus, UniProt P16277); assay: Upstate KinaseProfiler enzyme assay, Blk; format: biochemical; details: 500 nM compound; read-out: Percent inhibition at 500 nM Blk(m)
T2 construct: purchased Upstate Biotechnology (Dundee, UK), KinaseProfiler service
Protocol: (§3) Further enzyme assays were conducted at Upstate Biotechnology (Dundee, UK) in the KinaseProfiler™ Assay system.
(§4) The general protocol is as follows. All kinases are pre-diluted to a 10× working concentration prior to addition into the assay. The composition of the dilution buffer for the kinases is 20 mM MOPS pH 7.0, 1 mM EDTA, 0.1% β-mercaptoethanol, 0.01% Brij-35, 5% glycerol, 1 mg/ml BSA. All substrates are dissolved and diluted to working stocks in de-ionised water.

[4] = molecular target: T3, BTK(h) (Homo sapiens, UniProt Q06187); assay: Upstate KinaseProfiler enzyme assay, BTK; format: biochemical; details: 500 nM compound; read-out: Percent inhibition at 500 nM BTK(h)
T3 construct: purchased Upstate Biotechnology (Dundee, UK), KinaseProfiler service
Protocol: as §3, §4

[5] = tested on: BaF3 wild-type cells; assay: Cellular screening, BaF3 wild-type cells, Alamar Blue; format: cell-based; details: Mus musculus, 40 hr, read-out: BAF3wt IC50_nM
Protocol: For screening purposes, compounds were diluted in 96 well plates at a concentration of 20 μM. Plates were warmed at 37° C. for 30 minutes before the assay was performed.
The growth factor dependant myelomonocytic cell line BaF3 bearing the pTET-off plasmid (Clontech) was transfected with either pTELJAK2 or pTELJAK3, and the transfected cells were selected for growth-factor independent cell growth. The BaF3 wild-type cells were cultured in DMEM containing 10% FCS, 10% WEHI 3B conditioned medium. The BaF3 TELJAK cells ([…]) were cultured in DMEM 10% Tet-System Approved FBS (without WEHI 3B conditioned medium).
as §1, §2

[6] = molecular target: T4, KDR(h) (Homo sapiens, UniProt P35968); assay: Upstate KinaseProfiler enzyme assay, KDR; format: biochemical; details: 500 nM compound; read-out: Percent inhibition at 500 nM KDR(h)
T4 construct: purchased Upstate Biotechnology (Dundee, UK), KinaseProfiler service
Protocol: as §3, §4

T2 sequence (P16277 whole entry): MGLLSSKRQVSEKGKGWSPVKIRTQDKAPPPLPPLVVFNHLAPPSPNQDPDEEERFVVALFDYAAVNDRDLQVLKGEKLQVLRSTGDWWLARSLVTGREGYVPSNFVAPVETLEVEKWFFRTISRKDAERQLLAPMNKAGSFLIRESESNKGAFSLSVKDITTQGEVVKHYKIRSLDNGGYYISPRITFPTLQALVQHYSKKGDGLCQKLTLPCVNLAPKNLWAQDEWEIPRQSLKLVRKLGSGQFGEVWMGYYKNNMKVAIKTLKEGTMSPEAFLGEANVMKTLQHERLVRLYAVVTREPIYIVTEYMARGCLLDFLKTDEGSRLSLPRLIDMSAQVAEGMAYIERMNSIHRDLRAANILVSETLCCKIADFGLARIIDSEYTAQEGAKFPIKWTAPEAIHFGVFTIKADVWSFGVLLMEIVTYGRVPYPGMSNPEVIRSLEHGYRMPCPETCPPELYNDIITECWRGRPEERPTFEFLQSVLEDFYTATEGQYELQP
T3 sequence (Q06187 whole entry): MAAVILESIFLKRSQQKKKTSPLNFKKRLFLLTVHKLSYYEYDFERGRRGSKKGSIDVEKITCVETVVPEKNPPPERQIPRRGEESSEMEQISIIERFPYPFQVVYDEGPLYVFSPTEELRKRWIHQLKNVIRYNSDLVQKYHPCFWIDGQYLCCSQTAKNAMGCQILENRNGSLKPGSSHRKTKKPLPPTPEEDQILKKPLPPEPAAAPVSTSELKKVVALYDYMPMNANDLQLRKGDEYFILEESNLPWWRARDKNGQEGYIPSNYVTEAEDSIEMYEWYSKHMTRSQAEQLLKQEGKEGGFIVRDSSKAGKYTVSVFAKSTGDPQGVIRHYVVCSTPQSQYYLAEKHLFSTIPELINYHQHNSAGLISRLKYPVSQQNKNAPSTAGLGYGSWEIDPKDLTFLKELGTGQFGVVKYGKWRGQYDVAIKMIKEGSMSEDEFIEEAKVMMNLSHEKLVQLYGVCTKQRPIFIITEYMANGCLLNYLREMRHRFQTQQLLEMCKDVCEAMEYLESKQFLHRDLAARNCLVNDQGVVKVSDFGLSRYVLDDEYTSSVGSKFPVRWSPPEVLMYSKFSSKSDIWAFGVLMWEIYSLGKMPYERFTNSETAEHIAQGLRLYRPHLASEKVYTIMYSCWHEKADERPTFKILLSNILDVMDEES
T1 sequence (P23458 875-1153 limits assumed): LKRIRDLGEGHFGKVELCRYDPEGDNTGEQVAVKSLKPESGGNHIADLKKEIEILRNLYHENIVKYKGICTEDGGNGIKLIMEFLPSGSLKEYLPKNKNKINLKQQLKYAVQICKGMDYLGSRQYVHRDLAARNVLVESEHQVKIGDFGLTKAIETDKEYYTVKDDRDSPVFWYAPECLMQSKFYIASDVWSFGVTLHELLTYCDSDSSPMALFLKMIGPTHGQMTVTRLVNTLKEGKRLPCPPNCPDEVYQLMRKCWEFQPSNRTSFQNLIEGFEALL
T4 sequence (P35968 20-1356): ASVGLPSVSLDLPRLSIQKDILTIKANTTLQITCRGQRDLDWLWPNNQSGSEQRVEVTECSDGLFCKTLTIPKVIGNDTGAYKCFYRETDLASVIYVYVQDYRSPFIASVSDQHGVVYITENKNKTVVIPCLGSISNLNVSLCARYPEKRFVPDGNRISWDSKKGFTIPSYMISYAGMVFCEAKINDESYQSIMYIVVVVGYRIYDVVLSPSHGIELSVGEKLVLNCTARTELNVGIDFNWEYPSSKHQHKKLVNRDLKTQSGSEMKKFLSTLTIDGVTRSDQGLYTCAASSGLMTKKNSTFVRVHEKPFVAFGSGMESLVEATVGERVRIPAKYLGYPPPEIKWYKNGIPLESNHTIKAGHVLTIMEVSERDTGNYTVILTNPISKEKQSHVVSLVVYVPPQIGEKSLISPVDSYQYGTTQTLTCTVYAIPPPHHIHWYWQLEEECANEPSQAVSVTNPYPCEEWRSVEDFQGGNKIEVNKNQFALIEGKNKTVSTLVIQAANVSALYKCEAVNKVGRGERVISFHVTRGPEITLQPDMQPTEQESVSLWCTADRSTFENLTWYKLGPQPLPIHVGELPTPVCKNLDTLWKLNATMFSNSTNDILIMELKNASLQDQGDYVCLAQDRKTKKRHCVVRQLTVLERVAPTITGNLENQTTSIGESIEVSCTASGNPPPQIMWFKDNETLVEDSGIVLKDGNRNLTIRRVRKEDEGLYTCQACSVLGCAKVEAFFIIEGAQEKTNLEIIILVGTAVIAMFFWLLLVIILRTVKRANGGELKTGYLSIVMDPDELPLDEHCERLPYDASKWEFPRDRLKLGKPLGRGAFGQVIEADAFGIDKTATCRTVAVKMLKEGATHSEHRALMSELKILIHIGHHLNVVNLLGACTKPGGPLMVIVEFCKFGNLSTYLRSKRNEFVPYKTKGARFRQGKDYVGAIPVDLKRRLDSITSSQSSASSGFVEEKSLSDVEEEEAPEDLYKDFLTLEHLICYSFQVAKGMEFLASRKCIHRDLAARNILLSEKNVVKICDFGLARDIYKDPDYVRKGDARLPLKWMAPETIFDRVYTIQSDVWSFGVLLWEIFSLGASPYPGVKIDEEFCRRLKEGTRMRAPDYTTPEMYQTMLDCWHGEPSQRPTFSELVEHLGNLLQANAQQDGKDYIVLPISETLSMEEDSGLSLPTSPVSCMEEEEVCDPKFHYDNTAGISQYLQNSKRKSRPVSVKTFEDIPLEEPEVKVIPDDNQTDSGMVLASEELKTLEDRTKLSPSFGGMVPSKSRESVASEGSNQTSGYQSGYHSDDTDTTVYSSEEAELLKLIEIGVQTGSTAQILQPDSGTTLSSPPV

Row | Structure (SMILES) | IC50 [1] [µM] | IC50 [2] [µM] | inhibition at 0.5 µM [3] [%] | inhibition at 0.5 µM [4] [%] | IC50 [5] [µM] | inhibition at 0.5 µM [6] [%]
1 | C=CC(=O)Nc1ccc(Sc2ccnc(Nc3ccc(N4CCOCC4)cc3)n2)cc1 [Compound 25, N-(4-(2-(4-morpholinophenylamino)pyrimidin-4-ylthio)phenyl)acrylamide] | > 1 | < 1 | 71 | 83 | > 20 | 
2 | N#Cc1ncn(Cc2ccc(Sc3ccnc(Nc4ccc(N5CCOCC5)cc4)n3)cc2)c1C#N [Compound 201, 1-(4-(2-(4-morpholinophenylao)pyrimidin-4-ylthio)benzyl)-1H-imidazole-4,5-dicarbonitrile] | > 1 | < 5 | 100 | 100 | < 5 | 100
3 | Cc1cnc(Nc2ccc(O)cc2)nc1Sc1ccc(NC(=O)CCl)cc1 [Compound 193, 2-chloro-N-(4-(2-(4-hydroxyphenylao)-5-methylpyrimidin-4-ylthio)phenyl)acetamide] | > 1 | < 1 |  |  | < 5 | 
4 | C=CC(=O)Nc1cccc(Nc2nccc(Sc3ccccn3)n2)c1 [Compound 2, N-(3-(4-(pyridin-2-ylthio)pyrimidin-2-ylamino)phenyl)acrylamide] | > 1 | < 5 |  |  | < 5 | 
5 | C=CC(=O)Nc1ccc(Sc2nc(Nc3ccc(N4CCC(O)C4)cc3)ncc2C)cc1 (stereo not shown) [Compound 295, N-(4-(2-(4-(3-hydroxypyrrolidin-1-yl)phenylao)-5-methylpyrimidin-4-ylthio)phenyl)acrylamide] | > 1 | < 1 |  |  | > 20 | 
6 | c1cc(Sc2ccc(Cn3cnnn3)cc2)nc(Nc2ccc(N3CCOCC3)cc2)n1 [Compound 109, 4-(4-((1H-tetrazol-1-yl)methyl)phenylthio)-N-(4-morpholinophenyl)pyrimidin-2-ae] | > 1 | > 20 |  |  | < 20 | 
7 | N#CCC(=O)Nc1cccc(Sc2ccnc(Nc3ccc(N4CCOCC4)cc3)n2)c1 [Compound 24, N-(3-(2-(4-morpholinophenylamino)pyrimidin-4-ylthio)phenyl)-2-cyanoacetamide] | > 1 | < 20 |  |  | < 20 | 
8 | C=CC(=O)NCc1ccc(Sc2ccnc(Nc3ccc(N4CCOCC4)cc3)n2)cc1 [Compound 111, N-(4-(2-(4-morpholinophenylamino)pyrimidin-4-ylthio)benzyl)acrylamide] | > 1 | < 5 | 100 | 100 | < 20 | 100
9 | C=CC(=O)Nc1cccc(Sc2ccnc(Nc3ccc(N4CCOCC4)cc3)n2)c1 [Compound 23, N-(3-(2-(4-morpholinophenylamino)pyrimidin-4-ylthio)phenyl)acrylamide] | > 1 | < 1 | 97 | 84 | < 20 | 
10 | C=CC(=O)Nc1ccc(Sc2ccnc(Nc3ccc(N4CCOCC4)cc3)n2)cc1OC [Compound 123, N-(2-methoxy-4-(2-(4-morpholinophenylao)pyrimidin-4-ylthio)phenyl)acrylamide] | > 1 | < 20 | 100 | 100 | < 5 | 100
11 | Cc1cnc(Nc2ccc(N3CCOCC3)cc2)nc1Sc1ccc(NC(=O)CSCC(=O)O)cc1 [Compound 230, 2-(2-(4-(5-methyl-2-(4-morpholinophenylao)pyrimidin-4-ylthio)phenylao)-2-oxoethylthio)acetic acid] | < 1 | > 20 |  |  | > 20 | 
12 | C=CC(=O)Nc1ccc(Sc2nc(Nc3ccc(NS(C)(=O)=O)c(OC)c3)ncc2C)cc1 [Compound 296, N-(4-(2-(3-methoxy-4-(methylsulfonamido)phenylao)-5-methylpyrimidin-4-ylthio)phenyl)acrylamide] | > 1 | < 1 |  |  | < 5 | 
13 | C=CC(=O)Nc1cccc(Sc2ccnc(Nc3cccc(N4CCOCC4)c3)n2)c1 [Compound 110, N-(3-(2-(3-morpholinophenylao)pyrimidin-4-ylthio)phenyl)acrylamide] | > 1 | < 5 | 100 | 100 | < 20 | 100
14 | C=CC(=O)Nc1ccc(Sc2ccnc(Nc3cccc(N4CCOCC4)c3)n2)cc1 [Compound 77, N-(4-(2-(3-morpholinophenylao)pyrimidin-4-ylthio)phenyl)acrylamide] | > 1 | < 1 | 100 | 100 | < 5 | 100
15 | Nc1ccc(Sc2ccnc(Nc3ccc(N4CCOCC4)cc3)n2)cc1 [Compound 27, 4-(4-aophenylthio)-N-(4-morpholinophenyl)pyrimidin-2-ae] | < 1 | < 5 |  |  | < 20 | 
16 | NCc1cccc(Sc2ccnc(Nc3ccc(N4CCOCC4)cc3)n2)c1 [Compound 75, 4-(3-(aomethyl)phenylthio)-N-(4-morpholinophenyl)pyrimidin-2-ae] | < 0.5 | < 20 |  |  | < 20 | 
17 | C=CC(=O)N(C)c1ccc(Sc2nc(Nc3ccc(N4CCOCC4)cc3)ncc2Br)cc1 [Compound 261, N-(4-(5-bromo-2-(4-morpholinophenylao)pyrimidin-4-ylthio)phenyl)-N-methylacrylamide] | > 1 | < 1 |  |  | > 20 | 
18 | N#CCNCc1cccc(Sc2ccnc(Nc3ccc(N4CCOCC4)cc3)n2)c1 [Compound 68, 2-(3-(2-(4-morpholinophenylao)pyrimidin-4-ylthio)benzylao)acetonitrile] | < 1 | > 20 |  |  | > 20 | 
19 | C=CC(=O)Nc1ccc(Sc2nc(Nc3ccc(N4CCOCC4)cc3)ncc2F)cc1 [Compound 268, N-(4-(5-fluoro-2-(4-morpholinophenylao)pyrimidin-4-ylthio)phenyl)acrylamide] | > 1 | < 1 |  |  | > 20 | 
20 | C=CC(=O)Nc1ccc(Sc2ccnc(Nc3cc(C)cc(C)c3)n2)cc1 [Compound 82, N-(4-(2-(3,5-dimethylphenylao)pyrimidin-4-ylthio)phenyl)acrylamide] | > 1 | < 20 |  |  | < 20 | 
21 | C=CC(=O)NCc1cccc(Sc2ccnc(Nc3ccc(N4CCOCC4)cc3)n2)c1 [Compound 112, N-(3-(2-(4-morpholinophenylamino)pyrimidin-4-ylthio)benzyl)acrylamide] | > 1 | < 20 | 100 | 100 | > 20 | 100

From patent US8846704B2, “Thiopyrimidine-based compounds and uses thereof” (YM Biosciences Austraila Pty Ltd, priority 2007, dated 2014)
